The values below come from US20140031431A1, “PEST-IMPERVIOUS PACKAGING MATERIAL AND PEST-CONTROL COMPOSITION” (Biopack Ltd., priority 2004, published 2014).

Each structure is given as a SMILES string.

For one assay, the system named is storage insects. Briefly: Penetration prevention (antifeedant) effect judged from combined repellency, choice and non-choice bioassays. The class given is in vivo, Rhyzopertha dominica. Details: key: 0 (no effect); +; ++; +++ (strong effect). To be noted: at 50 μg/cm^2, 4 arbitrary classes. The procedure: (§1) In order to evaluate the effect of isolated samples or compounds on the behavior of storage insects, three bioassays were conducted: repellency, “choice” and “non-choice” paper perforation bioassays. These bioassays were aimed to uncover two principle activities: repellency and antifeedant activities. Accordingly, the “repellency bioassay” uncovered the sample's capacity to repel insects and the “choice bioassay” uncovered the combined antifeedant and repelling activities. […] Thus, the combined data of all three bioassays enabled determining the antifeedant capacity of the sample.

The subject of the next assay is T. castaneum adults. As to the kind of experiment: Repellency bioassay (Examples 2-4). Format: in vivo, Tribolium castaneum. Details: key to Repellency: 0 (no effect); +; ++; +++ (strong effect). The procedure: as §1
The propensity of the tested extracts to repel insects was determined against T. castaneum adults using the methods by Laudani et al. (1955) and McDonald et al. (1970). Accordingly, filter paper strips (Filtrak 3 HW; 10×20 cm) were treated with 4 ml of acetone solutions of turmeric extracts at 50 μg/cm^2 (or any other predetermined concentration). Each treated paper strip was attached lengthwise by Scotch tape on the reverse side, edge to edge, to two untreated 5×20 cm strips, to which acetone alone had been similarly applied. Two glass rings, 2.5 cm high and 6.4 cm i.d., were then placed over the two matched papers so that the joined edges of the papers bisected the rings. Ten adults of the test insect species were then exposed separately on the test arenas inside each glass ring, and their numbers on the treated and untreated halves were recorded every hour for the first eight hours exposure on the first day, and then in the morning of the next day two additional recordings were made for a total of 10 consecutive readings. In each test four replicates were conducted. All tests were performed at 27° C. The average count of all four replicates, each containing 10 reading periods was converted to percent repellency values, as described by Laudani et al. (1955).

Assay [1] deals with storage beetle Tribolium castaneum. The conditions noted are these: as long as 8 weeks following application; cited from earlier work.
The test system of assay [2] is R. dominica adults. As to the kind of experiment: Non-choice paper perforation bioassay (Examples 2-4). Format: in vivo, Rhyzopertha dominica. The conditions noted are these: 24 hours. An excerpt: The device used for the penetration prevention bioassay consisted of two identical open-ended glass cylinders (24 mm i.d., 28 mm o.d., 26 mm height) each with four notches spaced at equal distances around the outer rim. The impregnated office paper and a piece of wire-mesh (US standard No. 25) cut into 28 mm diameter discs were placed together on top of one cylinder. Then the second cylinder was placed over the wire-mesh and the two cylinders were pressed together and held in place by two rubber bands, secured by the notches in the cylinder rims (Navarro et al., 1998). Ten 10-15 d old R. dominica adults were placed inside the top cylinder and were kept in the test devices for […] in a temperature and humidity controlled room. All tests were run at 27° C. and 65% R.H., and there were ten replicates (devices) per test. At the end of each exposure period, the discs were examined on a black surface under a binocular microscope at 15× magnification. The number of perforations appearing as black circles were counted, and a comparative analysis was performed using the Student's t test for residual effect and the differences between control and dosages applied were determined using Dunnet's test (Anon., 1989). […]

The subject of assay [3] is several field and storage insects. To be noted: direct application methods; cited from earlier work.
The subject of assay [4] is R. dominica adults. As to the kind of experiment: Choice paper perforation bioassay (Examples 2-4). Format: in vivo, Rhyzopertha dominica. Here is the method:
as §1
The same methodology used in the non-choice test was used in this test. However, in choice test, the 28 mm diameter discs of 110 μm thick office paper were divided in half; one side was impregnated with the oil or fraction under test, while the other half was used as a blank and was treated with acetone only. In this test only a 50 microgram sample of the test oil or fraction was applied per cm^2 of paper. […] The number of perforations appearing in the two parts of the disc were counted, and a comparative analysis was performed using the Student's t test for residual effect and the differences between control and dosages applied were determined using Dunnet's test (Anon., 1989).

With `CC(C)=CC(=O)CC(C)c1ccc(C)cc1` (stereo not drawn) [ar-turmerone, 2-methyl-6-(4-methylphenyl)-2-hepten-4-one], the Penetration prevention effect in the assay with storage insects came out at 0. Further, the “Repellency test (%) (50 μg/cm^2)” value in the assay with T. castaneum adults (50 μg/cm^2) turned out to be 75%. For the same compound, the Repellency result with T. castaneum adults (at 50 μg/cm^2, 4 arbitrary classes) is “+++”. For the same compound, the “ar-turmerone required to achieve 60% repellency” value in the assay with T. castaneum adults (estimated from concentration-repellency curve (FIG. 2)) is on record as approximately 32 μg/cm^2. Besides, in assay [1], the average repellency is recorded as 62.9% and the repellency class result was “IV (class IV, 60.1-80%)”. In addition, in the assay on R. dominica adults [2], the “Non-choice test (%) (50 μg/cm^2)” value is −483%. Moreover, the “concentration at which insecticidal” value in assay [3] was “at least 500 ppm”. Besides, in the assay with R. dominica adults [4], the “Choice Test (%) (50 μg/cm^2)” value is 89%.
